Source: patent publication EP0637237B1, “CALCIUM RECEPTOR-ACTIVE MOLECULES” (BRIGHAM AND WOMEN'S HOSPITAL, INC., priority 1993, dated 1994)
Where two headings read alike, the source gives them in different places.

Tests used:
[1] = target: T1, bovine parathyroid Ca^2+-receptor (Bos taurus, UniProt P35384); assay: Cl- current in Xenopus oocytes expressing the cloned receptor (BoPCaR 1); type: cell-based; conditions: neomycin 20-100 µM
T1 construct: expressed in transfected cells; host or cells: Xenopus laevis oocytes injected with cRNA from the BoPCaR 1 cDNA (plasmid pSPORT1, ATCC 75416)
T1 sequence (P35384 20-1085): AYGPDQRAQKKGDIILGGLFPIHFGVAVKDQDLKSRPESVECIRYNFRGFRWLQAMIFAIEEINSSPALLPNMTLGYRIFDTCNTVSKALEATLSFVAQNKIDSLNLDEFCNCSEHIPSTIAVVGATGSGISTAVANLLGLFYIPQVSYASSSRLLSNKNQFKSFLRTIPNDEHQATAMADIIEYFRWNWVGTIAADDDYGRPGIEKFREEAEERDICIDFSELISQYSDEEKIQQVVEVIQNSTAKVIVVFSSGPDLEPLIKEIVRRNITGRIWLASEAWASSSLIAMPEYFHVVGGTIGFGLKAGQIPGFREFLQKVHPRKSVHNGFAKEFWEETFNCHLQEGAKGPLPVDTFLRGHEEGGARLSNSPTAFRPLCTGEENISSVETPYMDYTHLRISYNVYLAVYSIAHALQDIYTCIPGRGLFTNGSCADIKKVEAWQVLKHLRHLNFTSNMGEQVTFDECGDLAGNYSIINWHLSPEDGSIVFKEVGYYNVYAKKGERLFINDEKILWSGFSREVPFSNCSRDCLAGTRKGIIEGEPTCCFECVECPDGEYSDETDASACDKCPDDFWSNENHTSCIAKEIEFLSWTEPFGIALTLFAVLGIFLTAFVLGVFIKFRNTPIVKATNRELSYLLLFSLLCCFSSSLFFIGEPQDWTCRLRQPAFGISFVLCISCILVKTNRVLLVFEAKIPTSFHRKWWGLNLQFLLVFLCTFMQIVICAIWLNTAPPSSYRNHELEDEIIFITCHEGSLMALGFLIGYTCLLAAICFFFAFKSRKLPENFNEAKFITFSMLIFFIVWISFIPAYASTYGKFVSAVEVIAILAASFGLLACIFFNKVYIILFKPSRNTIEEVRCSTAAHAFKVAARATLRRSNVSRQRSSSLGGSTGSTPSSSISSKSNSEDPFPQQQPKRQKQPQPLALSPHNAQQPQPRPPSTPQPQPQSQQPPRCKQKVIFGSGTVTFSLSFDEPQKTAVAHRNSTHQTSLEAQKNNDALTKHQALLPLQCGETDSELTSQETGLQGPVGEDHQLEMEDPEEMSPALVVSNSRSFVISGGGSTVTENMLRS

[2] = target: T2, parathyroid cell Ca^2+ receptor (Homo sapiens, UniProt P41180); assay: [Ca2+]i (fura-2) in human parathyroid cells; type: cell-based; design: increase in [Ca2+]i: dose or concentration left out as unconfirmed
T2 construct: Dissociated parathyroid cells were prepared from a parathyroid adenoma obtained by surgery from a patient with primary hyperparathyroidism; endogenous in cells; host or cells: primary human parathyroid cells from adenomatous or hyperplastic glands
T2 sequence (P41180 20-1078): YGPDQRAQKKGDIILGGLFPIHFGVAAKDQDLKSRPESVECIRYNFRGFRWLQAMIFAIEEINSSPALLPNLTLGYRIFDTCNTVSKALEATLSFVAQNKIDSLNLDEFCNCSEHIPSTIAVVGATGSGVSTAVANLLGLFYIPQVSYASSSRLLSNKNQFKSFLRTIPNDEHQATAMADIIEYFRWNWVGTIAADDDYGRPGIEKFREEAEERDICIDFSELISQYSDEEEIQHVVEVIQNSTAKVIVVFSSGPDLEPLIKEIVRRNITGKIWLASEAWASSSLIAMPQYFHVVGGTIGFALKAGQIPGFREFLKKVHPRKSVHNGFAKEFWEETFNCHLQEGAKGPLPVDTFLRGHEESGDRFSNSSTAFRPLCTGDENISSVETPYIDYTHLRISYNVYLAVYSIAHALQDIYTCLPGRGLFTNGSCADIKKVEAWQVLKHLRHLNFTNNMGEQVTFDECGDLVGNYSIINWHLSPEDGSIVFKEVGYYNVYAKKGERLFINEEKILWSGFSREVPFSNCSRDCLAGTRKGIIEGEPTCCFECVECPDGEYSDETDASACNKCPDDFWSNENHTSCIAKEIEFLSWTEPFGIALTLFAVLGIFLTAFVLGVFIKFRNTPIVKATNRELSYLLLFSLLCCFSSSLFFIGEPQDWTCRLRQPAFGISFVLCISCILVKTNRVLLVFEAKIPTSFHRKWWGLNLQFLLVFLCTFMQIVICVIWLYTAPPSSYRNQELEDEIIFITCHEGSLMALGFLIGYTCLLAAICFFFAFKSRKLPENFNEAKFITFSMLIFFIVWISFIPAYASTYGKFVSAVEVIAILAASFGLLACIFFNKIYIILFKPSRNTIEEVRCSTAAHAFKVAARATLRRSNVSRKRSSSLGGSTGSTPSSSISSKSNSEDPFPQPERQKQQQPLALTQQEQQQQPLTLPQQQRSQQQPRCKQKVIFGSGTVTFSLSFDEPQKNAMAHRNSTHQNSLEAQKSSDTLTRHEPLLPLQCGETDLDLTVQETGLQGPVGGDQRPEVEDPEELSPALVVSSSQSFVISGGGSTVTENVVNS
Method: Human parathyroid glands, obtained from patients undergoing surgical removal of parathyroid tissue for primary or uremic hyperparathyroidism (HPT), were treated similarly to bovine tissue. Glands were trimmed of excess fat and connective tissue and then minced with a fine scissors into approximate cubes of 2-3 mm. Dissociated parathyroid cells were prepared by collagenase digestion. Dissociated cells were then purified by centrifugation in Percoll buffer. The resultant parathyroid cell preparation was essentially devoid of red blood cells, adipocytes, and capillary tissue as assessed by phase contrast microscopy and Sudan black B staining. Dissociated and purified parathyroid cells were present as small clusters containing 5 to 20 cells.
The cells were then pelleted, resuspended in the same buffer lacking the ester, and incubated a further 15 min at 37°C. The cells were subsequently washed twice with PCB containing 0.5 mM CaCl2 and 0.5% BSA and maintained at room temperature (about 20°C). Immediately before use, the cells were diluted five-fold with prewarmed 0.5 mM CaCl2-PCB to obtain a final BSA concentration of 0.1%. The concentration of cells in the cuvette used for fluorescence recording was 1-2 x 10^6/ml.
The fluorescence of indicator-loaded cells was measured at 37°C in a spectrofluorimeter (Biomedical Instrumentation Group, University of Pennsylvania, Philadelphia, PA) equipped with a thermostated cuvette holder-and magnetic stirrer using excitation and emission wavelengths of 340 and 510 nm, respectively. […] Leakage of dye is dependent on temperature and most occurs within the first 2 min after warming the cells in the cuvette; dye leakage increases only very slowly thereafter. To correct the calibration for dye leakage, cells were placed in the cuvette and stirred at 37°C for 2-3 min. The cell suspension was then removed, the cells pelleted, and the supernatant returned to a clean cuvette. […] This estimate was subtracted from the apparent Fmin.

[3] = system: osteoclast Ca^2+ receptor; assay: [Ca2+]i (indo-1) in single rat osteoclasts; type: cell-based
[4] = target: T3, parathyroid cell Ca^2+ receptor (Bos taurus, UniProt P35384); type: cell-based, bovine
T3 sequence (P35384 20-1085): T1 sequence (P35384 20-1085)

[5] = Net positive charge of the molecule; type: physicochemical; conditions: Table 1; effective charge at physiological pH
[6] = target: T4, Ca^2+ receptor (Homo sapiens, UniProt P41180); assay: Cl- current in Xenopus oocytes injected with human parathyroid poly(A)+ mRNA; type: cell-based
T4 construct: Oocytes were injected with poly(A)^+-enriched mRNA from human parathyroid tissue (hyperplastic glands from a case of secondary HPT); expressed in transfected cells; host or cells: Xenopus laevis oocytes injected with poly(A)+ mRNA from hyperplastic human parathyroid glands
T4 sequence (P41180 20-1078): T2 sequence (P41180 20-1078)

SMILES: NC[C@@H]1O[C@H](O[C@H]2[C@@H](O)[C@H](O[C@@H]3[C@@H](O)[C@H](N)C[C@H](N)[C@H]3O[C@H]3O[C@H](CN)[C@@H](O)[C@H](O)[C@H]3N)O[C@@H]2CO)[C@H](N)[C@@H](O)[C@@H]1O [neomycin B]
- changes in Cl- current [1]: produced changes in Cl^- current in oocytes essentially identical to those produced by Ca^2+ or Gd^3+
- pattern of change in [Ca2+]i ([2]; human parathyroid cells from adenomatous tissue, Fig. 19): not only a transient but additionally a steady-state increase in [Ca^2+]i
- increase in [Ca2+]i ([2]; tested): large increase in [Ca^2+]i
- effect on basal [Ca2+]i ([3]; 5 mM): without effect on basal [Ca^2+]i
- effect on the response to subsequent extracellular Ca2+ (25 mM) ([3]; neomycin 10 mM, spermine 20 mM, verapamil 100 µM): did not block
- increase in [Ca2+]i in rat osteoclasts ([3]; neomycin 10 mM, spermine 10 or 20 mM): Neither neomycin (10 mM) nor spermine (10 or 20 mM) caused increases in [Ca^2+]i
- increase in [Ca2+]i in osteoclasts ([3]; neomycin B 1 mM, spermine 1 or 5 mM, Fig. 23): failed to evoke any increase in [Ca^2+]i
- increase in [Ca2+]i in osteoclasts ([3]; screening, small responses were detected): none of these caused any large increase in [Ca^2+]i
- [Ca2+]i response in Ca2+-free buffer ([4]; 100 µM neomycin (maximally effective), absence of extracellular Ca2+): rapid and transient increase in [Ca^2+]i
- [Ca2+]i response in Ca2+-free buffer ([4]; 10 àM neomycin alone (submaximal), Ca2+-free buffer): did not by itself cause an increase in [Ca^2+]i
- Net (+) Charge [5]: +6
- mobilization of intracellular Ca2+ in oocytes expressing the Ca2+ receptor ([6]; hexacyclen 135 µM, neomycin 100 µM, NPS 382 5 mM): effective
- change in current in water-injected oocytes ([6]; neomycin B 10 mM, five water-injected oocytes): failed to cause any change in the current
